Patent US20240189268A1, “SESQUITERPENE DERIVATIVE OR PHARMACEUTICALLY ACCEPTABLE SALT THEREOF AND USE THEREOF” (MFC CO., LTD., priority 2021, published 2024)
“Also recorded” adds a separate entry of the source.

Legend:
aging mice [1] = test: Grip strength of aging mice; type: in vivo; conditions: for grip strength (muscle strength of forelimbs and hindlimbs): 24 to 25-month-old mice, once a week for 16 weeks, vs Control group
Method: In addition, the muscle strengths of the forelimbs and hindlimbs of 24 to 25-month-old mice were evaluated for the three groups using a grip strength measuring machine, and the evaluation was conducted once a week for 16 weeks.

promoter of MSTN = test: pMSTN_luc luciferase assay (MSTN promoter activity); type: cell-based; conditions: for MSTN promoter activity (luciferase) after Doxorubicin: pretreated 3 hours (1-1: 1, 3, 10 μM; 1-2: 1, 3, 10, 30 μM), vs Doxorubicin alone
Method: After 12 hours of transfection with 1 μg of a pMSTN_luc vector (myostatin; new plasmid vector generated by inserting a promoter region of a MSTN gene into a plasmid vector (pGL4.15 vector) capable of luciferase experiment), Compound 1-1 (MFC-1) was pretreated (1, 3, and 10 μM) for 3 hours, respectively. Thereafter, luciferase activity was measured by harvesting after treatment with 0.5 μg/ml of an anticancer agent Doxorubicin for 6 hours. The results were illustrated in FIG. 1B.
(Meanwhile, the luciferase assay used in FIG. 1B was an assay of transfecting a luciferase vector into a cell, treating a drug, and then treating luciferin to measure the amount of light emitted by the activation of the promoter of the gene by the drug. This means that it is possible to determine whether the promoter was activated and that the gene may be regulated at the transcriptional level by the drug touching the promoter region.)
After 12 hours of transfection with 1 μg of the pMSTN_luc vector, Compound 1-2 (MFC-2) was pretreated (1, 3, 10, and 30 μM) for 3 hours, respectively. Thereafter, the luciferase activity was measured by harvesting after treatment with Doxorubicin 0.5 μg/ml for 6 hours. The results were illustrated in FIG. 1C.
Cedrol (Reference) and Compound 1-2 (MFC-2) were each treated (3 μM), respectively, and harvested 12 hours later to measure luciferase activity (FIG. 3J).

NF-κB promoter = test: pNF-κB luciferase assay (NF-κB promoter activity); type: cell-based
Method: NF-κB was a transcription factor binding to a promoter region of a myostatin gene, a muscle mass regulation target protein, and to determine whether NF-κB was involved in the regulation of myostatin expression of Compound MFC-2, after 12 hours of transfection with 1 μg of the pNF-κB vector, Compound 1-2 (MFC-2) was treated (3 μM) for 12 hours. Thereafter, the luciferase activity was measured by harvesting (FIG. 3H). For reference, pGL3 and pGL4.15 shown in FIG. 3 were a type of luciferase plasmid vector, and the vector itself without the gene inserted was used as Control (control group). The vector in which the promoter region of the NF-κB gene was inserted into the luciferase vector was expressed as pNF-κB.
After 12 hours of transfection with 1 μg of the pNF-κB vector, Compound 1-2 (MFC-2) was pretreated (3 μM) for 3 hours. Thereafter, 0.5 μg/ml of Doxorubicin was treated for 6 hours, harvested, and luciferase activity was measured (FIG. 3I).

aging mice [2] = test: Muscle size (GC, TA, EDL) of aging mice fed compound; type: in vivo; conditions: 21-month-old aging mice, in feed for 3 months; vs Control group
Method: 21-month-old aging mice were fed with regular feed (Control), feed containing Cedrol (Reference), and feed containing Compound 1-2 (MFC-2) for 3 months for each group, and thereafter, an animal experiment was conducted to compare the sizes of the Gastrocnemius muscle (GC), Tibialis anterior (TA), and Extensor digitorum longus (EDL) muscles separated from the hind limbs of aging mice.

Myostatin = test: qRT-PCR of EDL muscle tissue of aging mice: myostatin; type: in vivo; conditions: vs Control group, listed as MFC-2
Excerpt: (§1) MuRF1 (muscle RING-finger protein 1) was a muscle-specific E3 ubiquitin ligase and a type of atrogene causing sarcopenia, and it was confirmed that the expression of Myostatin and MuRF1 was reduced in the EDL muscle tissue of the group fed with Compound MFC-2.

MuRF1 = test: qRT-PCR of EDL muscle tissue of aging mice: MuRF1; type: in vivo
Excerpt: as §1

[3] = Animal blood analysis of aging mice (CK, LDH, AST, TG); type: in vivo
Method: For the Control group, Reference group, and MFC-2 group, an animal blood analysis experiment was conducted on aging mice. As a result, it was confirmed that the serum CK level of creatine kinase (CK), which was an enzyme contained in skeletal muscle, myocardium, smooth muscle, etc. to be released into the blood when the muscle was damaged, decreased in the MFC-2 group compared to other groups (FIG. 5A).

[4] = then Doxorubicin 0.5 μg/ml 6 hours
[5] = aging mice blood, compared to other groups
[6] = Doxorubicin 0.5 μg/ml for 6 hours, alone

C[C@@H]1CC[C@H]2C(C)(C)[C@H]3C[C@@]12CC[C@@]3(C)O [Cedrol, reference compound]
grip strength (muscle strength of forelimbs and hindlimbs) (aging mice [1]): gradually increased compared to the Control group

COc1cc(C(=O)O[C@]2(C)CC[C@@]34C[C@@H]2C(C)(C)[C@@H]3CC[C@H]4C)ccc1O [Compound 1-1, (3R,3aS,6R,7R,8aS)-3,6,8,8-tetramethyloctahydro-1H-3a,7-metanoazulen-6-yl-4-hydroxy-3-methoxybenzoate]
MSTN promoter activity (luciferase) after Doxorubicin (promoter of MSTN; [4]): lower expression level than a group treated with Doxorubicin alone

COc1cc(C(=O)O[C@]2(C)CC[C@@]34C[C@@H]2C(C)(C)[C@@H]3CC[C@H]4C)ccc1OC(C)=O [Compound 1-2, (3R,3aS,6R,7R,8aS)-3,6,8,8-tetramethyloctahydro-1H-3a,7-methanoazulen-6-yl-4-acetoxy-3-methoxybenzoate]
pMSTN-luciferase activity (promoter of MSTN; 3 μM, harvested 12 hours later, compared with Cedrol): reduced pMSTN-luciferase activity more effectively than existing Cedrol (Reference) | MSTN promoter activity (luciferase) after Doxorubicin (promoter of MSTN; [4]): lower expression level than the group treated with Doxorubicin alone | inhibitory effect on MSTN promoter activity compared with Compound 1-1 (promoter of MSTN; pretreatment, then Doxorubicin 0.5 μg/ml 6 hours): greater inhibitory effect than Compound 1-1 (MFC-1) | NF-κB promoter activity (luciferase) (NF-κB promoter; 3 μM for 12 hours, no Doxorubicin): reduces NF-κB promoter activity | NF-κB promoter activity (luciferase) after Doxorubicin (NF-κB promoter; pretreated 3 μM 3 hours, then Doxorubicin 0.5 μg/ml 6 hours, vs Doxorubicin alone): lower expression level than the group treated with Doxorubicin alone | muscle size (GC, TA, EDL) (aging mice [2]): increase in muscle size | grip strength (muscle strength of forelimbs and hindlimbs) (aging mice [1]; listed as MFC-2): gradually increased compared to the Control group | grip strength compared to Reference group (Cedrol) (aging mice [1]; aging mice, from week 15): increased compared to the Reference group from week 15 later | myostatin mRNA expression in EDL muscle tissue (Myostatin): significantly decreased compared to the Control group; also recorded: reduced | MuRF1 mRNA expression in EDL muscle tissue (MuRF1): reduced | LDH level ([3]; aging mice blood, compared to Control group): decrease in LDH level | AST level [3, 5]: decrease in the levels thereof | TG level [3, 5]: decrease in the levels thereof | serum CK level ([3]; aging mice, compared to other groups): decreased

COc1cccc2c1C(=O)c1c(O)c3c(c(O)c1C2=O)C[C@@](O)(C(=O)CO)C[C@@H]3O[C@H]1C[C@H](N)[C@H](O)[C@H](C)O1 [Doxorubicin, reference compound]
MSTN promoter activity (luciferase) (promoter of MSTN; [6]): rapidly increased | NF-κB promoter activity (luciferase) (NF-κB promoter; [6]): increased
